Reference: patent publication US12037345B2, “Heterobicyclic compounds for inhibiting the activity of SHP2” (TAIHO PHARMACEUTICAL CO., LTD., priority 2018, dated 2024)
Where a name gives a salt, the structure may show the parent alone. Read-outs that look alike come from different tables or passages of the source.

Key:
SHP2 = SHP2 (Homo sapiens (Human), UniProt Q06124); assay: SHP2 Biochemical Assay (DiFMUP conversion, pIRS1-activated)
In short: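 Human SHP2 (10 pM) pre-incubated 30 min with compound and […] pIRS1 activating peptide, then 50 μM DiFMUP added; buffer 25 mM Bis-Tris propane pH 7.0, 150 mM NaCl, 5% DMSO. Fluorescence rate (ex 360/em 450 nm) over 30 min; IC50 by four-parameter fit, averaged across experiments.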

[1] = system: pERK (phospho-p44/42 MAPK Thr202/Tyr204) in HCC827 cells; assay: Cellular pERK Inhibition Assay, Method B (PathScan phospho-p44/42 MAPK sandwich ELISA); format: cell-based; details: for IC50: Homo sapiens
Protocol: Cellular pERK Inhibition Assay
HCC827 cells (ATCC, Manassas, USA) were seeded into 96-well plates at a density of 1×10^5 cells/well in RPMI medium supplemented with 10% FBS and incubated 24h. Compounds were diluted first in DMSO and then into serum-free medium, before being added to cells in triplicate to give a final concentration of 0.1% DMSO. Plates were incubated at 37° C. for the indicated time in a humidified atmosphere of 5% CO2 in air.
Following compound treatment, medium was removed and cells were lysed by adding 50 μL of lysis buffer (Cell Signalling Technology, Beverly, USA) to each well. Plates were then incubated at room temperature for 25 minutes with shaking. pERK levels were measured in lysates using the PathScan(Registered Trademark) phospho-p44/42 MAPK (Thr202/Tyr204) sandwich ELISA (Cell Signalling Technology, Beverly, USA) as per kit instructions. Briefly, 50 μL of cell lysate was added to 50 μL of ELISA sample diluent in a 96-well ELISA plate and incubated overnight at 4° C. Following washing, 100 μL of detection antibody was added per well and the plates incubated for 1 hour at 37° C. Plates were washed again and incubated at 37° C. for 30 minutes with 100 μl of HRP-linked secondary antibody per well. After final washing, 100 μL per well of TMB substrate was added and plates incubated at 37° C. to develop colour. Colour development was stopped by the addition of 100 μL per well of stop solution. Plates were read at 450 nm on a SpectraMax Gemini reader (Molecular Devices, Uckfield, UK).
The average signal from blank wells (no cells added) was subtracted from the signals from each sample well. Levels of pERK were then expressed as “percent of control”, using DMSO treated samples as control. Dose response curves were generated using GraphPad Prism Version 6 (GraphPad Software, La Jolla, USA) and fitted using the four parameter logistic curve fit.

[2] = system: pERK (phospho-p44/42 ERK) in HCC827 cells; assay: Cellular pERK Inhibition Assay, Method A (In-Cell Western); format: cell-based; details: Homo sapiens
In short: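 HCC827 cells in RPMI/10% FBS were treated with compounds in serum-free medium (0.2% DMSO final) at 37 °C for the indicated time, in quadruplicate. Fixed cells were immunostained for phospho-p44/42 ERK and read by infrared imaging. Blank-subtracted signal was expressed as % of DMSO control; IC50 from four-parameter logistic fit, averaged across experiments.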

[3] = Table 20, read-out: pERK (IC50, μM) Method B
[4] = Table 19, head prints unit as "-M"
[5] = Table 19, head prints unit as "-M", read-out: pERK (IC50) Method B
[6] = Table 19, head prints unit as "-M", read-out: pERK (IC50) Method A

IC50 (SHP2; Table 20)	IC50 [1, 3]	IC50 [1, 5]	SMILES	IC50 (SHP2; [4])	further results
70 nM	1.1 µM	–	CCn1cc2ccc(-c3c[nH]c4nc(N5CCC6(CC5)COC[C@H]6N)n(C)c(=O)c34)c(F)c2n1 [Example 184, 2-[(4S)-4-amino-2-oxa-8-azaspiro[4.5]decan-8-yl]-5-(2-ethyl-7-fluoro-2H-indazol-6-yl)-3-methyl-3H,4H,7H-pyrrolo[2,3-d]pyrimidin-4-one hydrochloride]	–	–
–	–	1.6 µM	Cn1cc2c(Cl)c(-c3n[nH]c4nc(N5CCC6(CC5)C[C@H](O)C[C@H]6N)n(C)c(=O)c34)ccc2n1 [Example 138, 6-[(1R,3S)-1-amino-3-hydroxy-8-azaspiro[4.5]decan-8-yl]-3-(4-chloro-2-methyl-2H-indazol-5-yl)-5-methyl-1H,4H,5H-pyrazolo[3,4-d]pyrimidin-4-one]	19 nM	–
45 nM	3.3 µM	–	CCn1cc2c(Cl)c(-c3c[nH]c4nc(N5CC6CNC(C6)C5)n(C)c(=O)c34)ccc2n1 (single isomer, unassigned) [Example 190, 5-(4-chloro-2-ethyl-2H-indazol-5-yl)-2-{3,6-diazabicyclo[3.2.1]octan-3-yl}-3-methyl-3H,4H,7H-pyrrolo[2,3-d]pyrimidin-4-one hydrochloride]	–	–
–	–	0.013 µM	CCn1cc2c(Cl)c(-c3c[nH]c4nc(N5CCC6(CC5)CO[C@@H](C)[C@H]6N)n(C)c(=O)c34)ccc2n1 [Example 150, 2-[(3S,4S)-4-amino-3-methyl-2-oxa-8-azaspiro[4.5]decan-8-yl]-5-(4-chloro-2-ethyl-2H-indazol-5-yl)-3-methyl-3H,4H,7H-pyrrolo[2,3-d]pyrimidin-4-one]	12 nM	–
–	–	0.034 µM	C[C@@H]1OCC2(CCN(c3nc4[nH]nc(-c5ccc6nn(C)c(Cl)c6c5Cl)c4c(=O)n3C)CC2)[C@@H]1N [Example 147, 6-[(3S,4S)-4-amino-3-methyl-2-oxa-8-azaspiro[4.5]decan-8-yl]-3-(3,4-dichloro-2-methyl-2H-indazol-5-yl)-5-methyl-1H,4H,5H-pyrazolo[3,4-d]pyrimidin-4-one hydrochloride salt]	12 nM	–
–	–	0.11 µM	Cn1cc2c(Cl)c(-c3n[nH]c4nc(N5CCC6(CCC[C@H]6N)CC5)n(C)c(=O)c34)ccc2n1 [Example 142, 6-[(1R)-1-amino-8-azaspiro[4.5]decan-8-yl]-3-(4-chloro-2-methyl-2H-indazol-5-yl)-5-methyl-1H,4H,5H-pyrazolo[3,4-d]pyrimidin-4-one]	17 nM	–
–	–	–	Cn1cc2c(Cl)c(-c3n[nH]c4nc(N5CCC6(CC5)CNC6)n(C)c(=O)c34)ccc2n1 [Example 141, 3-(4-chloro-2-methyl-2H-indazol-5-yl)-6-{2,7-diazaspiro[3.5]nonan-7-yl}-5-methyl-1H,4H,5H-pyrazolo[3,4-d]pyrimidin-4-one]	43 nM	pERK Method B, % at given concentration ([1]; Table 19, at 10 μM): 64% at 10 μM
34 nM	0.85 µM	–	CCn1cc2cc(-c3c[nH]c4nc(N5CCC6(CC5)COC[C@H]6N)n(C)c(=O)c34)ccc2n1 [Example 180, 2-[(4S)-4-amino-2-oxa-8-azaspiro[4.5]decan-8-yl]-5-(2-ethyl-2H-indazol-5-yl)-3-methyl-3H,4H,7H-pyrrolo[2,3-d]pyrimidin-4-one hydrochloride]	–	–
23 nM	0.21 µM	–	CCn1cc2c(F)c(-c3c[nH]c4nc(N5CCC6(CC5)COC[C@H]6N)n(C)c(=O)c34)ccc2n1 [Example 181, 2-[(4S)-4-amino-2-oxa-8-azaspiro[4.5]decan-8-yl]-5-(2-ethyl-4-fluoro-2H-indazol-5-yl)-3-methyl-3H,4H,7H-pyrrolo[2,3-d]pyrimidin-4-one hydrochloride]	–	–
–	–	–	CN[C@@H]1C[C@@H]2CC[C@H]1N2c1nc2[nH]cc(-c3ccc4nn(C)c(Cl)c4c3F)c2c(=O)n1C [Example 106, 5-(3-chloro-4-fluoro-2-methyl-2H-indazol-5-yl)-3-methyl-2-((1R,2R,4S)-2-(methylamino)-7-azabicyclo[2.2.1]heptan-7-yl)-3,7-dihydro-4H-pyrrolo[2,3-d]pyrimidin-4-one]	5 nM	IC50 [2, 6]: 0.1 µM
–	–	–	Cn1cc2c(Cl)c(-c3c[nH]c4nc(N5CC6COCC(C5)N6)n(C)c(=O)c34)ccc2n1 [Example 17, 2-(3-oxa-7,9-diazabicyclo[3.3.1]nonan-7-yl)-5-(4-chloro-2-methyl-2H-indazol-5-yl)-3-methyl-3,7-dihydro-4H-pyrrolo[2,3-d]pyrimidin-4-one]	43 nM	IC50 [2, 6]: 0.8 µM
–	–	–	Cn1cc2c(Cl)c(-c3c[nH]c4nc(N5[C@H]6CC[C@@H]5[C@H](N)C6)n(C)c(=O)c34)ccc2n1 [Example 49, 2-((1R,2R,4S)-2-amino-7-azabicyclo[2.2.1]heptan-7-yl)-5-(4-chloro-2-methyl-2H-indazol-5-yl)-3-methyl-3,7-dihydro-4H-pyrrolo[2,3-d]pyrimidin-4-one]	4.5 nM	IC50 [2, 6]: 0.021 µM
–	–	–	Cn1cc2c(Cl)c(-c3c[nH]c4nc(N5[C@@H]6CCC[C@H]5C[C@H](N)C6)n(C)c(=O)c34)ccc2n1 [Example 36, 2-(exo-3-amino-9-azabicyclo[3.3.1]nonan-9-yl)-5-(4-chloro-2-methyl-2H-indazol-5-yl)-3-methyl-3,7-dihydro-4H-pyrrolo[2,3-d]pyrimidin-4-one]	5.5 nM	IC50 [2, 6]: 0.35 µM
–	–	–	CN(C)C(=O)CCn1nc2ccc(-c3c[nH]c4nc(N5C6CCCC5CNC6)n(C)c(=O)c34)c(Cl)c2c1Cl [Example 83, 3-(5-(2-(3,9-diazabicyclo[3.3.1]nonan-9-yl)-3-methyl-4-oxo-4,7-dihydro-3H-pyrrolo[2,3-d]pyrimidin-5-yl)-3,4-dichloro-2H-indazol-2-yl)-N,N-dimethylpropanamide]	11 nM	IC50 [2, 6]: 0.19 µM

SMILES	IC50 (SHP2; Table 20)	IC50 [1, 3]	IC50 [1, 5]	IC50 (SHP2; [4])	further results
CNc1ccc2ccc(-c3c[nH]c4nc(N5[C@H]6CC[C@@H]5[C@H](N)C6)n(C)c(=O)c34)c(Cl)c2n1 [Example 199, 2-[(1R,2R,4S)-2-amino-7-azabicyclo[2.2.1]heptan-7-yl]-5-[8-chloro-2-(methylamino)quinolin-7-yl]-3-methyl-3H,4H,7H-pyrrolo[2,3-d]pyrimidin-4-one hydrochloride]	14 nM	0.11 µM	–	–	–
CCn1cc2c(Cl)c(-c3c[nH]c4nc(N5[C@H]6CC[C@@H]5[C@@H](F)[C@@H](N)C6)n(C)c(=O)c34)ccc2n1 [Example 197, 2-[(1R,2S,3S,5S)-3-amino-2-fluoro-8-azabicyclo[3.2.1]octan-8-yl]-5-(4-chloro-2-ethyl-2H-indazol-5-yl)-3-methyl-3H,4H,7H-pyrrolo[2,3-d]pyrimidin-4-one hydrochloride]	12 nM	0.032 µM	–	–	–
Cn1cc2c(Cl)c(-c3n[nH]c4nc(N5[C@@H]6CC[C@H]5C[C@H](N)C6)n(C)c(=O)c34)ccc2n1 [Example 140, exo-6-[3-amino-8-azabicyclo[3.2.1]octan-8-yl]-3-(4-chloro-2-methyl-2H-indazol-5-yl)-5-methyl-1H,4H,5H-pyrazolo[3,4-d]pyrimidin-4-one]	–	–	0.48 µM	17 nM	–
Cn1cc2c(Cl)c(-c3c[nH]c4nc(N5[C@@H]6CC[C@@H](N)[C@H]5CC6)n(C)c(=O)c34)ccc2n1 (racemic) [Example 152, rac-2-[(1R,2R,5R)-2-amino-8-azabicyclo[3.2.1]octan-8-yl]-5-(4-chloro-2-methyl-2H-indazol-5-yl)-3-methyl-3H,4H,7H-pyrrolo[2,3-d]pyrimidin-4-one]	–	–	0.66 µM	29 nM	–
Cn1nc2ccc(-c3n[nH]c4nc(N5[C@@H]6CC[C@H]5C[C@@H](N)C6)n(C)c(=O)c34)c(Cl)c2c1Cl [Example 160, 6-(endo-3-amino-8-azabicyclo[3.2.1]octan-8-yl)-3-(3,4-dichloro-2-methyl-2H-indazol-5-yl)-5-methyl-1,5-dihydro-4H-pyrazolo[3,4-d]pyrimidin-4-one, hydrochloride salt]	8.5 nM	–	–	–	IC50 ([2]; Table 20, read-out: pERK (IC50, μM) Method A): 0.23 µM
